For orientation: EC50 means the concentration that produces a half-maximal response. Lower therefore signals higher potency in that assay. One may read the Emax as the greatest response seen or fitted, relative to the assay's reference. For orientation: Ki means the equilibrium dissociation constant of an inhibitor or competing ligand from its target. Lower therefore signals higher affinity.

Three compounds from patent US8980906B2, “Pyridonemorphinan analogs and biological activity on opioid receptors” (Purdue Pharma L.P., priority 2012, dated 2015) can be followed below.

Bounds are passed on as bounds.

One assay deals with μ-opioid receptor (Homo sapiens (Human), UniProt P35372). The assay is described as follows: μ-opioid receptor [35S]GTPγS functional assay, HEK-293 or CHO cells. The assay is classed as biochemical.
The next assay addresses κ-opioid receptor (Homo sapiens (Human), UniProt P41145). The assay is described as follows: κ-opioid receptor [35S]GTPγS functional assay, HEK-293 or CHO cells. The class given is biochemical. Particulars: for Emax: relative to U69,593, HEK-293 or CHO cells.
The target in a further assay is ORL-1 receptor (Homo sapiens (Human), UniProt P41146). The experiment in a line: ORL-1 receptor radioligand binding assay ([3H]-nociceptin). Particulars: binding affinity, [3H]-nociceptin displacement. On the procedure:
ORL-1 Receptor Binding Assay Procedure: Membranes from recombinant HEK-293 cells expressing the human opioid receptor-like receptor (ORL-1) (Perkin Elmer, Shelton, Conn.) were prepared by lysing cells in ice-cold hypotonic buffer (2.5 mM MgCl2, 50 mM HEPES, pH 7.4) (10 ml/10 cm dish) followed by homogenization with a tissue grinder/Teflon pestle. Membranes were collected by centrifugation at 30,000×g for […] at 4° C. and pellets resuspended in hypotonic buffer to a final concentration of 1-3 mg/ml. Protein concentrations were determined using the BioRad protein assay reagent with bovine serum albumen as standard. Aliquots of the ORL-1 receptor membranes were stored at −80° C.
Radioligand binding assays (screening and dose-displacement) used 0.1 nM [^3H]-nociceptin (Perkin Elmer, Shelton, Conn.; 87.7 Ci/mmole) with 12 μg membrane protein in a final volume of 500 μl binding buffer (10 mM MgCl2, 1 mM EDTA, 5% DMSO, 50 mM HEPES, pH 7.4). Non-specific binding was determined in the presence of […] unlabeled nociceptin (American Peptide Company). All reactions were performed in 96-deep well polypropylene plates for 1 h at room temperature. Binding reactions were terminated by rapid filtration onto 96-well Unifilter GF/C filter plates (Perkin Elmer, Shelton, Conn.) presoaked in 0.5% polyethylenimine (Sigma). Harvesting was performed using a 96-well tissue harvester (Perkin Elmer, Shelton, Conn.) followed by three filtration washes with 500 μl ice-cold binding buffer. Filter plates were subsequently dried at 50° C. for 2-3 hours. Fifty μl/well scintillation cocktail (Perkin Elmer, Shelton, Conn.) was added and plates were counted in a Packard Top-Count for 1 min/well. The data from screening and dose-displacement experiments were analyzed using Microsoft Excel and the curve fitting functions in GraphPad PRISM™, v. 3.0 or higher, respectively, or an in-house function for one-site competition curve-fitting.

On to `O=C(O)c1cc2c([nH]c1=O)C[C@]13CCN(CC4CC4)[C@H](Cc4ccc(O)cc41)[C@]3(O)C2` [Compound 9, (6R,6aS,12aR)-15-(cyclopropylmethyl)-2,6a-dihydroxy-10-oxo-6,6a,7,10,11,12-hexahydro-5H-6,12a-(epiminoethano)naphtho[2,1-g]quinoline-9-carboxylic acid], for which the EC50 on μ-opioid receptor was above 20 µM; on κ-opioid receptor, above 20000 nM. Besides, the Emax on κ-opioid receptor was determined as 2.33 ± 1.33%. At ORL-1 receptor, the Ki amounted to 2320 ± 320 nM.
In turn, `NC(=O)c1cc2c([nH]c1=O)C[C@]13CCN(CC4CC4)[C@H](Cc4ccc(O)cc41)[C@]3(O)C2` [Compound 5, (6R,6aS,12aR)-15-(cyclopropylmethyl)-2,6a-dihydroxy-10-oxo-6,6a,7,10,11,12-hexahydro-5H-6,12a-(epiminoethano)naphtho[2,1-g]quinoline-9-carboxamide] returned a concentration for a half-maximal effect (EC50) at μ-opioid receptor above 20 µM. On κ-opioid receptor, this compound gave an EC50 of 4.37 ± 1.11 nM and an Emax of 10.2 ± 1.18%. At ORL-1 receptor, this compound came in with a Ki of 1330 ± 310 nM.
For `O=C(O)c1cc2c([nH]c1=O)C[C@]13CCN(CC4CC4)[C@H](Cc4ccc(O)cc41)[C@@H]3C2` [Compound 11, (6R,6aR,12aS)-15-(cyclopropylmethyl)-2-hydroxy-10-oxo-6,6a,7,10,11,12-hexahydro-5H-6,12a-(epiminoethano)naphtho[2,1-g]quinoline-9-carboxylic acid] the same measures were above 20 µM, 1.4 ± 0.56 nM, 19 ± 1.53% and 4.91 ± 0.82 nM.
